From PubChem BioAssay AID1745844 (Carcinogenic Potency Database (CPDB), 2022)
Where “and” joins values, the source holds several entries; their conditions need not be identical. Identical values can stand only once. Calls of active or inactive are those of the source. The rule behind the calls is not given here.

Test system: rodent lifetime carcinogenesis bioassay, tumor incidence TD50
Test: chronic cancer bioassays in animals – CPDB, compiled studies (AID 1745844)

## C=CC(N)=O
rat, strain Fischer 344, females, in drinking water, site: brain, lesion: astrocytoma, dosed 104 weeks, study length 104 weeks
  TD50: 38.8 mg/kg/day
rat, strain Fischer 344, females, in drinking water, site: brain, lesion: astrocytoma, dosed 107 weeks, study length 107 weeks
  TD50: 71.8 mg/kg/day
rat, strain Fischer 344, females, in drinking water, site: brain, lesion: oligodendroglioma, dosed 104 weeks, study length 104 weeks
  TD50: 259 mg/kg/day
rat, strain Fischer 344, females, in drinking water, site: central nervous system, lesion: astrocytoma, dosed 104 weeks, study length 104 weeks
  TD50: 19.5 mg/kg/day
rat, strain Fischer 344, females, in drinking water, site: central nervous system, lesion: glial tumors (oligodendroglioma and astrocytoma), dosed 104 weeks, study length 104 weeks
  TD50: 17.3 mg/kg/day
rat, strain Fischer 344, females, in drinking water, site: central nervous system, lesion: glial tumors (oligodendroglioma and astrocytoma), dosed 107 weeks, study length 107 weeks
  TD50: 57.2 mg/kg/day
rat, strain Fischer 344, females, in drinking water, site: clitoral gland, lesion: adenoma, dosed 104 weeks, study length 104 weeks
  TD50: 19 mg/kg/day
rat, strain Fischer 344, females, in drinking water, site: mammary gland, lesion: adenocarcinoma, dosed 104 weeks, study length 104 weeks
  TD50: 17.6 mg/kg/day
rat, strain Fischer 344, females, in drinking water, site: mammary gland, lesion: adenocarcinoma, dosed 107 weeks, study length 107 weeks
  TD50: 100 mg/kg/day
rat, strain Fischer 344, females, in drinking water, site: mammary gland, lesion: benign tumor, dosed 104 weeks, study length 104 weeks
  TD50: 4.21 mg/kg/day
rat, strain Fischer 344, females, in drinking water, site: mammary gland, lesion: fibroadenoma, dosed 104 weeks, study length 104 weeks
  TD50: 8.73 mg/kg/day
rat, strain Fischer 344, females, in drinking water, site: mammary gland, lesion: fibroadenoma, dosed 107 weeks, study length 107 weeks
  TD50: 9.33 mg/kg/day
rat, strain Fischer 344, females, in drinking water, site: mammary gland, lesion: several types, types named in the paper, dosed 107 weeks, study length 107 weeks
  TD50: 8.18 mg/kg/day
rat, strain Fischer 344, females, in drinking water, site: mammary tissue, wider than the gland, lesion: fibroma, dosed 104 weeks, study length 104 weeks
  TD50: 20.9 mg/kg/day
rat, strain Fischer 344, females, in drinking water, site: oral cavity, lesion: squamous-cell papilloma, dosed 104 weeks, study length 104 weeks
  TD50: 16.2 mg/kg/day
rat, strain Fischer 344, females, in drinking water, site: spinal cord, lesion: astrocytoma, dosed 104 weeks, study length 104 weeks
  TD50: 40.3 mg/kg/day
rat, strain Fischer 344, females, in drinking water, site: spinal cord, lesion: astrocytoma, dosed 107 weeks, study length 107 weeks
  TD50: 210 mg/kg/day
rat, strain Fischer 344, females, in drinking water, site: thyroid follicle, lesion: several types, types named in the paper, dosed 104 weeks, study length 104 weeks
  TD50: 19.1 mg/kg/day
rat, strain Fischer 344, females, in drinking water, site: thyroid follicle, lesion: several types, types named in the paper, dosed 107 weeks, study length 107 weeks
  TD50: 8.92 mg/kg/day
rat, strain Fischer 344, females, in drinking water, site: thyroid gland, lesion: follicular adenocarcinoma, dosed 104 weeks, study length 104 weeks
  TD50: 39.5 mg/kg/day
rat, strain Fischer 344, females, in drinking water, site: thyroid gland, lesion: follicular adenocarcinoma, dosed 107 weeks, study length 107 weeks
  TD50: 42.8 mg/kg/day
rat, strain Fischer 344, females, in drinking water, site: thyroid gland, lesion: follicular-cell adenoma, dosed 107 weeks, study length 107 weeks
  TD50: 11.7 mg/kg/day
rat, strain Fischer 344, females, in drinking water, site: uterus, lesion: adenocarcinoma, dosed 104 weeks, study length 104 weeks
  TD50: 26.5 mg/kg/day
rat, strain Fischer 344, males, in drinking water, site: adrenal gland, lesion: pheochromocytoma, benign, dosed 104 weeks, study length 104 weeks
  TD50: 18.1 mg/kg/day
rat, strain Fischer 344, males, in drinking water, site: brain, lesion: astrocytoma, dosed 104 weeks, study length 104 weeks
  TD50: 82.6 mg/kg/day
rat, strain Fischer 344, males, in drinking water, site: brain, lesion: astrocytoma, dosed 107 weeks, study length 107 weeks
  TD50: 76.8 mg/kg/day
rat, strain Fischer 344, males, in drinking water, site: brain, lesion: oligodendroglioma, dosed 104 weeks, study length 104 weeks
  TD50: 339 mg/kg/day
rat, strain Fischer 344, males, in drinking water, site: central nervous system, lesion: astrocytoma, dosed 104 weeks, study length 104 weeks
  TD50: 23.5 mg/kg/day
rat, strain Fischer 344, males, in drinking water, site: central nervous system, lesion: glial tumors (oligodendroglioma and astrocytoma), dosed 104 weeks, study length 104 weeks
  TD50: 24.8 mg/kg/day
rat, strain Fischer 344, males, in drinking water, site: central nervous system, lesion: glial tumors (oligodendroglioma and astrocytoma), dosed 107 weeks, study length 107 weeks
  TD50: 48.9 mg/kg/day
rat, strain Fischer 344, males, in drinking water, site: spinal cord, lesion: astrocytoma, dosed 104 weeks, study length 104 weeks
  TD50: 39.7 mg/kg/day
rat, strain Fischer 344, males, in drinking water, site: spinal cord, lesion: astrocytoma, dosed 107 weeks, study length 107 weeks
  TD50: 82.5 mg/kg/day
rat, strain Fischer 344, males, in drinking water, site: spleen, lesion: leukemia, dosed 104 weeks, study length 104 weeks
  TD50: 45.8 mg/kg/day
rat, strain Fischer 344, males, in drinking water, site: thyroid follicle, lesion: several types, types named in the paper, dosed 107 weeks, study length 107 weeks
  TD50: 7.35 mg/kg/day
rat, strain Fischer 344, males, in drinking water, site: thyroid gland, lesion: follicular adenocarcinoma, dosed 107 weeks, study length 107 weeks
  TD50: 77.2 mg/kg/day
rat, strain Fischer 344, males, in drinking water, site: thyroid gland, lesion: follicular-cell adenoma, dosed 104 weeks, study length 104 weeks
  TD50: 13.5 mg/kg/day
rat, strain Fischer 344, males, in drinking water, site: thyroid gland, lesion: follicular-cell adenoma, dosed 107 weeks, study length 107 weeks
  TD50: 7.49 mg/kg/day
rat, strain Fischer 344, males, in drinking water, site: tunica vaginalis, lesion: mesothelioma, benign, dosed 107 weeks, study length 107 weeks
  TD50: 9.45 mg/kg/day
rat, strain Fischer 344, males, in drinking water, site: tunica vaginalis, lesion: mesothelioma, malignant, dosed 104 weeks, study length 104 weeks
  TD50: 1.75 mg/kg/day

## CCCCCCCCCCCN(C)N=O
rat, strain Fischer 344, males, by gavage, site: esophagus, lesion: squamous-cell carcinoma, dosed 30 weeks, study length 65 weeks
  TD50: 15.4 mg/kg/day
rat, strain Fischer 344, males, by gavage, site: liver, lesion: cholangiocarcinoma, dosed 30 weeks, study length 65 weeks
  TD50: 3.18 mg/kg/day
rat, strain Fischer 344, males, by gavage, site: liver, lesion: hepatocellular carcinoma, dosed 30 weeks, study length 65 weeks
  TD50: 2.38 mg/kg/day
rat, strain Fischer 344, males, by gavage, site: lung, lesion: alveolar adenoma, dosed 30 weeks, study length 65 weeks
  TD50: 2.41 mg/kg/day
rat, strain Fischer 344, males, by gavage, site: lung, lesion: alveolar-cell adenoma, dosed 30 weeks, study length 65 weeks
  TD50: 4.99 mg/kg/day
rat, strain Fischer 344, males, by gavage, site: lung, lesion: squamous-cell carcinoma, dosed 30 weeks, study length 65 weeks
  TD50: 2.37 mg/kg/day
rat, strain Fischer 344, males, by gavage, site: stomach, nonglandular, lesion: papilloma, dosed 30 weeks, study length 65 weeks
  TD50: 15.4 mg/kg/day

## CCC(C)=NO
mouse, strain Charles River CD1, females, inhaled, site: liver, lesion: hepatocellular adenoma, dosed 78 weeks, study length 78 weeks
  TD50: 2440 mg/kg/day
mouse, strain Charles River CD1, females, inhaled, site: lung, lesion: adenoma, dosed 78 weeks, study length 78 weeks
  TD50: 5880 mg/kg/day
mouse, strain Charles River CD1, males, inhaled, site: liver, lesion: hepatocellular adenoma, dosed 78 weeks, study length 78 weeks
  TD50: 1460 mg/kg/day
mouse, strain Charles River CD1, males, inhaled, site: liver, lesion: hepatocellular carcinoma, dosed 78 weeks, study length 78 weeks
  TD50: 810 mg/kg/day
mouse, strain Charles River CD1, males, inhaled, site: liver, lesion: several types, types named in the paper, dosed 78 weeks, study length 78 weeks
  TD50: 534 mg/kg/day
mouse, strain Charles River CD1, males, inhaled, site: lung, lesion: adenoma, dosed 78 weeks, study length 78 weeks
  TD50: 1100 mg/kg/day
rat, strain Fischer 344, females, inhaled, site: liver, lesion: hepatocellular adenoma, dosed 113 weeks, study length 113 weeks
  TD50: 804 mg/kg/day
rat, strain Fischer 344, males, inhaled, site: liver, lesion: hepatocellular adenoma, dosed 113 weeks, study length 113 weeks
  TD50: 118 mg/kg/day
rat, strain Fischer 344, males, inhaled, site: liver, lesion: hepatocellular carcinoma, dosed 113 weeks, study length 113 weeks
  TD50: 242 mg/kg/day
rat, strain Fischer 344, males, inhaled, site: liver, lesion: several types, types named in the paper, dosed 113 weeks, study length 113 weeks
  TD50: 74.5 mg/kg/day
rat, strain Fischer 344, males, inhaled, site: mammary gland, lesion: fibroadenoma, dosed 113 weeks, study length 113 weeks
  TD50: 346 mg/kg/day
rat, strain Fischer 344, males, inhaled, site: skin, lesion: fibroma, dosed 113 weeks, study length 113 weeks
  TD50: 84.8 mg/kg/day

## CCC1(c2ccccc2)C(=O)NCNC1=O
mouse, strain B6C3F1, females, in feed, site: any site (literature study), lesion: several types, types named in the paper, dosed 101 weeks, study length 104 weeks
  TD50: 163 mg/kg/day
mouse, strain B6C3F1, females, in feed, site: liver, lesion: hepatoblastoma + hepatocellular carcinoma, dosed 101 weeks, study length 104 weeks
  TD50: 98.7 mg/kg/day
mouse, strain B6C3F1, females, in feed, site: liver, lesion: hepatoblastoma, dosed 101 weeks, study length 104 weeks
  TD50: 1390 mg/kg/day
mouse, strain B6C3F1, females, in feed, site: liver, lesion: hepatocellular adenoma + hepatoblastoma + hepatocellular carcinoma, dosed 101 weeks, study length 104 weeks
  TD50: 42.8 mg/kg/day
mouse, strain B6C3F1, females, in feed, site: liver, lesion: hepatocellular adenoma + hepatocellular carcinoma, dosed 101 weeks, study length 104 weeks
  TD50: 28.9 mg/kg/day
mouse, strain B6C3F1, females, in feed, site: liver, lesion: hepatocellular adenoma, dosed 101 weeks, study length 104 weeks
  TD50: 27.7 mg/kg/day
mouse, strain B6C3F1, females, in feed, site: liver, lesion: hepatocellular carcinoma, dosed 101 weeks, study length 104 weeks
  TD50: 97.3 mg/kg/day
mouse, strain B6C3F1, males, in feed, site: all sites, lesion: histiocytic sarcoma, dosed 101 weeks, study length 103 weeks
  TD50: 1150 mg/kg/day
mouse, strain B6C3F1, males, in feed, site: any site (literature study), lesion: several types, types named in the paper, dosed 101 weeks, study length 103 weeks
  TD50: 77.6 mg/kg/day
mouse, strain B6C3F1, males, in feed, site: liver + thyroid gland, lesion: hepatocellular adenoma + hepatoblastoma + hepatocellular carcinoma + follicular-cell adenoma, dosed 101 weeks, study length 103 weeks
  TD50: 60.2 mg/kg/day
mouse, strain B6C3F1, males, in feed, site: liver, lesion: hepatoblastoma + hepatocellular carcinoma, dosed 101 weeks, study length 103 weeks
  TD50: 24.7 mg/kg/day
mouse, strain B6C3F1, males, in feed, site: liver, lesion: hepatoblastoma, dosed 101 weeks, study length 103 weeks
  TD50: 52.5 mg/kg/day
mouse, strain B6C3F1, males, in feed, site: liver, lesion: hepatocellular adenoma + hepatoblastoma + hepatocellular carcinoma, dosed 101 weeks, study length 103 weeks
  TD50: 60.2 mg/kg/day
mouse, strain B6C3F1, males, in feed, site: liver, lesion: hepatocellular adenoma + hepatocellular carcinoma, dosed 101 weeks, study length 103 weeks
  TD50: 60.4 mg/kg/day
mouse, strain B6C3F1, males, in feed, site: liver, lesion: hepatocellular adenoma, dosed 101 weeks, study length 103 weeks
  TD50: 46.8 mg/kg/day
mouse, strain B6C3F1, males, in feed, site: liver, lesion: hepatocellular carcinoma, dosed 101 weeks, study length 103 weeks
  TD50: 55 mg/kg/day
mouse, strain B6C3F1, males, in feed, site: lung, lesion: alveolar/bronchiolar adenoma + alveolar/bronchiolar carcinoma, dosed 101 weeks, study length 103 weeks
  TD50: 1760 mg/kg/day
mouse, strain B6C3F1, males, in feed, site: thyroid gland, lesion: follicular-cell adenoma, dosed 101 weeks, study length 103 weeks
  TD50: 349 mg/kg/day
rat, strain Fischer 344, females, in feed, site: any site (literature study), lesion: several types, types named in the paper, dosed 101 weeks, study length 103 weeks
  carcinogen call: negative (inactive)
rat, strain Fischer 344, females, in feed, site: liver, lesion: hepatocellular adenoma + hepatoblastoma + hepatocellular carcinoma, dosed 101 weeks, study length 103 weeks
  TD50: 4050 mg/kg/day
rat, strain Fischer 344, males, in feed, site: adrenal medulla, lesion: pheochromocytoma benign, bilateral + pheochromocytoma, benign, dosed 99 weeks, study length 103 weeks
  TD50: 20.8 mg/kg/day
rat, strain Fischer 344, males, in feed, site: adrenal medulla, lesion: pheochromocytoma benign, bilateral + pheochromocytoma, malignant + pheochromocytoma, benign, dosed 99 weeks, study length 103 weeks
  TD50: 20.8 mg/kg/day
rat, strain Fischer 344, males, in feed, site: any site (literature study), lesion: several types, types named in the paper, dosed 99 weeks, study length 103 weeks
  TD50: 15.4 mg/kg/day
rat, strain Fischer 344, males, in feed, site: kidney, lesion: tubule adenoma + tubule carcinoma, dosed 99 weeks, study length 103 weeks
  TD50: 522 mg/kg/day and 967 mg/kg/day
rat, strain Fischer 344, males, in feed, site: kidney, lesion: tubule adenoma, dosed 99 weeks, study length 103 weeks
  TD50: 1280 mg/kg/day and 1290 mg/kg/day
rat, strain Fischer 344, males, in feed, site: liver, lesion: hepatocellular adenoma + hepatoblastoma + hepatocellular carcinoma, dosed 99 weeks, study length 103 weeks
  TD50: 138 mg/kg/day
rat, strain Fischer 344, males, in feed, site: testis, lesion: interstitial-cell adenoma, bilateral + interstitial-cell adenoma, dosed 99 weeks, study length 103 weeks
  TD50: 8.15 mg/kg/day
rat, strain Fischer 344, males, in feed, site: thyroid gland, lesion: follicular-cell adenoma + follicular-cell carcinoma, dosed 99 weeks, study length 103 weeks
  TD50: 80.2 mg/kg/day
rat, strain Fischer 344, males, in feed, site: thyroid gland, lesion: follicular-cell adenoma, dosed 99 weeks, study length 103 weeks
  TD50: 174 mg/kg/day
